Experiment: Qualitative solubility/crystallisation tests on 15 mg scale
Type: physicochemical
Description: The E/Z ratio pre and post dry-flash remain in the range of 30/70 to 40/60. Furthermore, such an approach should be considered on the basis of the scale at which the operation has to be carried out. On a 20 L scale, this operation would not be a time saving approach.

Qualitative solubility, Dissolves in (DIPE, hot): 40 vol hot
Qualitative solubility, Dissolves in (IPA, hot): 4 vol hot
Qualitative solubility, Dissolves in (MIBK, hot): 4 vol hot
Qualitative solubility, Dissolves in (THF, cold): 4 vol cold
Qualitative solubility, Dissolves in / Comment (heptanes): insoluble in 20 vol
Qualitative solubility, Dissolves in (tBuOH, hot): 6 vol hot
Qualitative solubility, Dissolves in (toluene, cold): 2 vol cold
Structure (SMILES): CO/N=C1/C[C@@H](CO)N(C(=O)c2ccc(-c3ccccc3C)cc2)C1 [(3Z,5S), (3Z,5S)-5-(hydroxymethyl)-1-[(2′-methyl-1,1′-biphenyl-4-yl)carbonyl]pyrrolidin-3-one-O-methyloxime]

— patent US20230226021A1, “ORAL FORMULATIONS OF PYRROLIDINE DERIVATIVES” (ObsEva S.A., priority 2013, published 2023)
